Experiments:
[1] = Personal experience: component topically applied to scalds; assay type: in vivo
From the text: (§1) From personal experience we have discovered the following traits associated with the specific components of the invention: […]

[2] = Personal experience: component topically applied to the skin of the face; assay type: in vivo
From the text: as §1

[3] = Personal experience: general traits of components; details: from personal experience
From the text: as §1

Vitamin E
pain and healing of the wound [1]: reduced pain and improved healing of the wound

Vitamin A
appearance of the skin [2]: improved appearance of the skin

O=C1O[C@H]([C@@H](O)CO)C(O)=C1O [Vitamin C]
trait of the component [3]: combating pain and inflammation

Reference: patent US20030072828A1, “Natural therapeutic composition for the treatment of wounds and sores” (priority 2001, published 2003)
